The text below walks through data of patent US12071436B2, “Anti-parasitic compounds and uses thereof” (Memorial Sloan-Kettering Cancer Center, priority 2016, dated 2024).

≈ marks a conversion by molar mass, not a printed value. Entries after “also recorded” stand apart in the source; their conditions may differ. Like-named read-outs stand apart in the source and are kept apart here. Bounds are passed on as bounds.

Series [1] deals with P. falciparum Dd2. Nature of the series: Anti-plasmodial growth inhibition, SYBR green I-based DNA quantification. Particulars: Plasmodium falciparum, 72 h incubation, n=3. Format: cell-based. Summed up:
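Dd2 cultures at 1% parasitemia and 2% hematocrit in RPMI 1640 were exposed to compound over 0–20 μM (DMSO ≤0.25%) for 72 h at 37 °C. Growth was read by SYBR green I DNA quantification, with 1 μM chloroquine setting the baseline. EC50 was fitted from the dose-response curve, n=3.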

A short description of series [2]: Human microsomal stability. It is filed as in vitro ADME. Particulars: t was 60 minutes. As for the experimental part:
Select compounds described herein were evaluated for structure-activity analyses for anti-plasmodial activity in vitro. For Dd2 EC50 (M), calculations were for n=3. For HepG2 EC50 (M), calculations were for n=1. For the human microsomal stability determination, t was 60 minutes.
To determine microsomal stability for selected compounds, a reaction plate was prepared by adding 691.25 μL, pre-warmed (37° C.) microsomal solution (0.63 mg/mL protein in 100 mM KPO4 with 1.3 mM EDTA) to an empty well of a 96 well plate and maintained at 37° C. The diluted 0.1 mM compound (8.75 μL) is added to the microsomal solution in the reaction plate and mixed thoroughly by repeated pipetting. The resulting solutions were pre-incubated for 5 minutes at 37° C. before preparing the T=0 plates. For the T=0 plates, an aliquot (160 μL) of each reaction solution was added to an empty well of a 96 well plate, as an exact replicate of the Reaction Plate. Cold (4° C.) MeOH (400 μL) is added to each well and mixed thoroughly by repeated pipetting. NADPH Regeneration solution (40 μL) is added to each well and mixed thoroughly by repeated pipetting. For the T=60 minute Incubation Plates (without NADPH), an aliquot (160 μL) of each reaction solution was added to an empty well of a 96 well plate, as an exact replicate of the Reaction Plate. LC-MS grade H2O (40 μL) is added to each well and mixed thoroughly by repeated pipetting. The plate was sealed and incubated at 37° C. for the incubation period. After incubation, cold (4° C.) MeOH (400 μL) is added to each well and mixed thoroughly by repeated pipetting. For the T=60 minute Incubation Plates, NADPH (95 μL) was added to the remaining solution (microsomes+test compound) in each well in the previously-prepared reaction plate to initiate the reaction. The plate was sealed and incubated at 37° C. for the incubation period. An aliquot (100 μL) was removed from each well at the desired time point and dispensed into a well of a 96-well plate. 200 μL of cold (4° C.) MeOH was […] the reaction.

In series [3] the test system is HepG2 human hepatoma cells. Nature of the series: HepG2 cytotoxicity, MTS cell proliferation assay. Conditions: 48 h, n=1. It is filed as cell-based. Summed up:
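HepG2 cells seeded at 2,500/well, grown 24 h, then exposed to compound serial dilutions for 48 h. Viability read by MTS assay; EC50 from n=1.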
A general note: Formazan colour is commonly taken as a measure of viable cells.

A short description of series [4]: PAMPA, Corning Gentest Pre-coated PAMPA plate. Format: in vitro ADME. Particulars: 1×PBS, pH 7.4, five hours, ambient temperature, read-out: Permeability (log Pe, in [cm/s]) (converted). As for the experimental part: For selected compounds, a Parallel artificial membrane permeability assay (PAMPA) analysis was conducted. The 10 mM DMSO stock solutions for selected compounds (Tan003-M03, ent-Tan003-M03, Tan003-O08, and Tan003-D20) were diluted 50 fold with 1×PBS, pH 7.4, for a dose concentration of 200 µM and a volume of 300 μL in the Donor compartment of the Corning Gentest Pre-coated PAMPA plate. After preparation of the Donor plate, any precipitation was noted. The Acceptor compartment was filled with 1×PBS (200 μL), pH 7.4. After careful assembly of the PAMPA plate, it was left to incubate for five hours in the dark at ambient temperature. The previously prepared solubility assay was used to measure the initial concentration of the sample in buffer (C0). After the incubation was complete, the PAMPA plate was disassembled, and the samples were transferred from the Donor and Acceptor plates to 96-well plates for analysis by chemiluminescent nitrogen detection (CLND. The C0 plate was filtered prior to analysis by CLND.

Series [5] in a line: Kinetic solubility assay. It is filed as physicochemical. Particulars: 24 °C, kinetic from dmso stock, ambient temperature.
The subject of series [6] is Asynchronous cultures. The series is described as follows: Parasitocidal or parasitostatic determination (rate of killing). Format: cell-based. Particulars: 3×IC50, asynchronous cultures treated for 12, 24, 48, or 72 hours, washed, monitored for continued growth. As to the method:
Asynchronous cultures were grown and treated with compounds, vehicle control or Dihydroartemisinin at 3×IC50 to determine their respective rate of killing curves. Cultures were treated for 12, 24, 48, or 72 hours with compound, washed several times to remove any inhibitor, and monitored for continued growth for several days. […] Overall, the exemplary compounds including, but not limited to, Tan003-M03 and ent-Tan003-D20 are parasitocidal agents blocking parasite maturation at the segmenter stage preventing egress, a novel mechanism of action absent among current antimalarials.

The subject of series [7] is synchronized parasite cultures (Dd2). Nature of the series: Stage specific parasite inhibition (Giemsa smears, flow cytometry). It is filed as cell-based, P. falciparum. As to the method: Select compounds described herein were evaluated for stage specific inhibition of parasite development. Tightly synchronized parasite cultures (Dd2) were treated with 3×IC50 concentrations of compound Tan003-M03 (“M03”), compound ent-Tan003-D20 (“D20-ent”), compound Tan003-O08 (“008”) or compound Tan002-O12 (“012”) at early ring, late ring, trophozoite, and schizont stages. Every 12 hours, Giemsa smears were made for treated cultures and samples were also collected and fixed for flow cytometry. […] Prior to flow analysis, fixed samples were permeabilized, RNase treated, and stained with YoYo-I as described in Bouillon et al., 2013. […] As the parasite matures, the DNA content increases and peaks start to spread to the right because of schizogony. Following reinvasion parasitemia increases in the next growth cycle, which is represented by an increase in peak height.

Setting [8] is: 50 mM NaPO4 pH 6.5 buffer, pH 6.5, aqueous buffer, 50 mM NaPO4 pH6.5, 2.0% DMSO, read-out: Solubility LogS, at pH 6.5 (converted).
Setting [9] is: 1×PBS pH 7.4 buffer, pH 7.4, aqueous buffer, 1×PBS pH7.4, 2.0% DMSO, read-out: Solubility LogS, at pH 7.4 (converted).
[10] abbreviates: SGF pH 1.2 buffer, pH 1.2, simulated gastric fluid, SGF pH1.2, 2.0% DMSO, read-out: Solubility LogS, at pH 1.2 (converted).

The term EC50 denotes the concentration needed to bring the measured effect to its halfway point. A low value points to a more potent agent. A word on the solubility: it is the dissolved amount per volume that the medium holds. `CC(C)(C)[S@@+]([O-])N1Cc2cc(C(=O)NCc3ccc4c(c3)OCO4)nc(-c3cccc(-c4cccnc4)c3)c2[C@H]1CCO` [Tan003-008]: the EC50 in series [1] stood at 530 ± 110 nM; in series [3] it was 41000 nM. Besides, in series [2], the “Human microsomal stability (%)” value was below 1%. For the same compound, the Papp at 5 h, 200 µM in series [4] is 1.82 ×10⁻⁶ cm/s. In addition, the solubility at 24 h in series [5] (setting [8]) was 10 µM (≈ 5.99 µg/mL); in series [5] (setting [9]), 12.6 µM (≈ 7.54 µg/mL); in series [5] (setting [10]) it was 158 µM (≈ 94.9 µg/mL).

On to `CC(C)(C)[S@+]([O-])N1Cc2cc(C(=O)NCc3ccccc3F)nc(-c3cccc(-c4cccnc4)c3)c2[C@@H]1CCO` [Tan003-D20], for which the EC50 in series [1] came out at 380 ± 20 nM. In addition, the “Human microsomal stability (%)” value in series [2] is recorded as below 1%. The Papp at 5 h, 200 µM in series [4] is 2.4 ×10⁻⁶ cm/s. Moreover, the solubility at 24 h in series [5] (setting [8]) is 6.31 µM (≈ 3.61 µg/mL); in series [5] (setting [9]), 7.94 µM (≈ 4.55 µg/mL); in series [5] (setting [10]), 158 µM (≈ 90.8 µg/mL).

Take `CC(C)NC(=O)N1Cc2cc(C(=O)NCC(F)(F)F)nc(-c3cccc(-c4cc5ccccc5o4)c3)c2[C@H]1CCO` [Tan003-M03, (R)-4-(3-(benzofuran-2-yl)phenyl)-3-(2-hydroxyethyl)-N^2-isopropyl-N^6-(2,2,2-trifluoroethyl)-1,3-dihydro-2H-pyrrolo[3,4-c]pyridine-2,6-dicarboxamide]: the EC50 in series [1] is 240 ± 70 nM; in series [3], 45000 nM. Also, in series [6], the “parasitocidal activity (rate of killing)” value is “parasitocidal and prohibit progression beyond segmenter stages; also recorded: parasitocidal and prevent any parasite development beyond the schizont stage when treated for at least 48 hours”. Also, in series [2], the “Human microsomal stability (%)” value came out at 61.5%. For the same compound, in series [7] (3×IC50, synchronized Dd2 cultures treated at ring, trophozoite or schizont stages, smears every 12 hours), the “parasite stage development, Giemsa staining” value is “inhibit parasite development before egress”. Further, the “parasite stage progression, flow cytometry” value in series [7] (3×IC50, synchronized Dd2 cultures, YoYo-I DNA staining) was “block parasite stage progression prior to egress”. Also, in series [4], the Papp at 5 h, 200 µM was 3.98 ×10⁻⁶ cm/s. The results for the solubility at 24 h in series [5] (setting [8]), in series [5] (setting [9]) and in series [5] (setting [10]) were 6.31 µM (≈ 3.57 µg/mL), 7.94 µM (≈ 4.5 µg/mL) and 7.94 µM (≈ 4.5 µg/mL), respectively.
